Assay results from PubChem BioAssay (NCI).
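A five-concentration, 48-hour dose response in 96-well plates underlies each endpoint, interpolated linearly between surrounding concentrations. GI50 = concentration required for 50% inhibition of growth. Definition used: TGI = concentration required for complete inhibition of growth.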

Legend:
Assay in all cases: NCI anticancer screen, dose series, 48 h
LOX IMVI melanoma = tested on: LOX IMVI melanoma
HT29 colon = tested on: HT29 colon
SR leukemia = tested on: SR leukemia
EKVX NSCLC = tested on: EKVX NSCLC
K-562 leukemia = tested on: K-562 leukemia
SN12C renal = tested on: SN12C renal
OVCAR-8 ovarian = tested on: OVCAR-8 ovarian
SNB-19 CNS = tested on: SNB-19 CNS
T-47D breast = tested on: T-47D breast
ACHN renal = tested on: ACHN renal
HOP-92 NSCLC = tested on: HOP-92 NSCLC
786-0 renal = tested on: 786-0 renal
UACC-257 melanoma = tested on: UACC-257 melanoma
BT-549 breast = tested on: BT-549 breast
M14 melanoma = tested on: M14 melanoma
U251 CNS = tested on: U251 CNS
RPMI-8226 leukemia = tested on: RPMI-8226 leukemia
NCI-H460 lung = tested on: NCI-H460 lung
SF-268 CNS = tested on: SF-268 CNS
A498 renal = tested on: A498 renal
OVCAR-5 ovarian = tested on: OVCAR-5 ovarian
OVCAR-3 ovarian = tested on: OVCAR-3 ovarian
SK-MEL-2 melanoma = tested on: SK-MEL-2 melanoma
MOLT-4 leukemia = tested on: MOLT-4 leukemia
MCF7 breast = tested on: MCF7 breast
COLO 205 colon = tested on: COLO 205 colon
SK-MEL-28 melanoma = tested on: SK-MEL-28 melanoma
SK-OV-3 ovarian = tested on: SK-OV-3 ovarian
MDA-MB-231 breast = tested on: MDA-MB-231 breast
IGROV1 ovarian = tested on: IGROV1 ovarian

COC(=O)Nc1nc2ccc(C(=O)c3cccc(I)c3)cc2[nH]1
TGI (LOX IMVI melanoma): 3920 nM | GI50 (HT29 colon): 37.5 nM | TGI (HT29 colon): 26000 nM | GI50 (SR leukemia): 31.4 nM | GI50 (EKVX NSCLC): 176 nM | TGI (EKVX NSCLC): > 87900 nM | GI50 (K-562 leukemia): 36.4 nM | TGI (K-562 leukemia): 14200 nM | GI50 (SN12C renal): 125 nM | TGI (SN12C renal): > 33300 nM | GI50 (OVCAR-8 ovarian): 132 nM | TGI (OVCAR-8 ovarian): 30400 nM | GI50 (SNB-19 CNS): 62.5 nM | TGI (SNB-19 CNS): > 39800 nM | GI50 (T-47D breast): 16500 nM | TGI (T-47D breast): > 100000 nM | GI50 (ACHN renal): 130 nM | TGI (ACHN renal): 21100 nM | GI50 (HOP-92 NSCLC): 98.5 nM | TGI (HOP-92 NSCLC): 11700 nM | GI50 (786-0 renal): 84.8 nM | TGI (786-0 renal): 6150 nM | GI50 (UACC-257 melanoma): 15100 nM | TGI (UACC-257 melanoma): > 100000 nM | GI50 (BT-549 breast): 160 nM | TGI (BT-549 breast): 6570 nM | GI50 (M14 melanoma): 72 nM | TGI (M14 melanoma): 20700 nM | GI50 (U251 CNS): 55.9 nM | TGI (U251 CNS): 12300 nM | GI50 (RPMI-8226 leukemia): 36.5 nM | TGI (RPMI-8226 leukemia): 1270 nM | GI50 (NCI-H460 lung): 40.7 nM | TGI (NCI-H460 lung): 4330 nM | GI50 (SF-268 CNS): 180 nM | TGI (SF-268 CNS): 17500 nM | GI50 (A498 renal): 43.4 nM | TGI (A498 renal): 614 nM | GI50 (OVCAR-5 ovarian): 173 nM | TGI (OVCAR-5 ovarian): 17000 nM | GI50 (OVCAR-3 ovarian): 33.2 nM | TGI (OVCAR-3 ovarian): 207 nM | GI50 (SK-MEL-2 melanoma): 1260 nM | TGI (SK-MEL-2 melanoma): > 72300 nM | GI50 (MOLT-4 leukemia): 60.9 nM | TGI (MOLT-4 leukemia): 10600 nM | GI50 (MCF7 breast): 36.9 nM | TGI (MCF7 breast): 15900 nM | GI50 (COLO 205 colon): 47.2 nM | TGI (COLO 205 colon): 4550 nM | GI50 (SK-MEL-28 melanoma): 1130 nM | TGI (SK-MEL-28 melanoma): > 81200 nM | GI50 (SK-OV-3 ovarian): 257 nM | TGI (SK-OV-3 ovarian): 28600 nM | GI50 (MDA-MB-231 breast): 166 nM | TGI (MDA-MB-231 breast): 5520 nM | GI50 (IGROV1 ovarian): 110 nM | TGI (IGROV1 ovarian): 8820 nM
